US20040180819A1, “Characterization of a membrane estrogen receptor” (priority 2001, published 2004)

How the values were obtained:
ERα receptor = biological target: T1, ERα receptor (Rattus norvegicus, UniProt P06211); test: Saturation binding / Scatchard analysis, D12 cytosolic (S2) fraction
T1 sequence (P06211 1-600): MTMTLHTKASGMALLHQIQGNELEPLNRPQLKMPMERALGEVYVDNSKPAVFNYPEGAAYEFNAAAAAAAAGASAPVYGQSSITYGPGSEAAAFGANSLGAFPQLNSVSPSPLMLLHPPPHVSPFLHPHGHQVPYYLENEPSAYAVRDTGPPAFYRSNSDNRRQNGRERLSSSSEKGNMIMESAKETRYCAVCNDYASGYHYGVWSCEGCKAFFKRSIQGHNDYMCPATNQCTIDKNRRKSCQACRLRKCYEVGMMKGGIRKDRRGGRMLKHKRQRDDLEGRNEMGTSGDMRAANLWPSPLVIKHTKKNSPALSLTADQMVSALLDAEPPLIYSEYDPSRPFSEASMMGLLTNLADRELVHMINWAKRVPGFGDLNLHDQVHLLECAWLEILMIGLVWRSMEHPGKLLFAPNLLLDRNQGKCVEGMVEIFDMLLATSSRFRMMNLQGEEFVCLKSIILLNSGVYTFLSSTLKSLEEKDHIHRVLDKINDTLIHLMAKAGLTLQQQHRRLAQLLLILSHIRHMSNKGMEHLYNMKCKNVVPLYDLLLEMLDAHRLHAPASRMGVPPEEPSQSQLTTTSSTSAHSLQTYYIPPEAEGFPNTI
Experimental: (§1) Briefly, cells were harvested in a binding buffer (10 mM Tris-HCl, 1 mM EDTA, 1 mM DTT; pH=7.2) containing 5 μg/ml protease inhibitors (aprotinin, leupeptin, phosphoramidon, PMSF, pepstatin), pelleted to remove cell media and then homogenized by mechanical disruption (polytron; speed 6 for 10 sec). Unlysed cells and debris were removed by centrifugation at 15,000×g for 15 min at 4° C. The resulting supernatant was homogenized and membranes were isolated by centrifugation at 100,000×g for 1 h at 4° C. The supernatant obtained following the high speed spin was labeled S2 (cytosol) while the pellet was labeled P2 (membranes). The pellet (P2) was resuspended using a glass homogenizer in 3 ml of 0.25 M sucrose in binding buffer. The sucrose gradient was layered in a 15 ml centrifuge tube starting with 41%, 25%, and 10% sucrose using J tubes. The P2 sample was added to the top and the remaining layer was capped with binding buffer. The tubes were centrifuged at 35,000×g for 1 h, placed in a fraction collector (bottom tube draw) and 500 μl samples were collected. Protein concentrations were determined with BCA reagent (Pierce). […] Statistical significance between IC50s and KDs was determined using a pair-wise Z-test. […]

mER receptor = test: Saturation binding / Scatchard analysis, D12 membrane (P2) fraction; set-up: species or system rat
Experimental: as §1

With C[C@]12CC[C@@H]3c4ccc(O)cc4CC[C@H]3[C@@H]1C[C@@H]([125I])[C@@H]2O [[^125I]-16α-iodo-3,17β-E2, [^125I]-16-α-iodo-3,17-βestradiol] the slope value (ERα receptor; S2 fraction) was 0.8, the Kd (ERα receptor; cytosolic (S2) binding) was 0.124 ± 0.0171 nM and the Kd (mER receptor) was 0.118 ± 0.0436 nM.
